Measured values as given in ChEMBL document CHEMBL1201862, “PubChem BioAssay data set” (2004).
Calls of active or inactive are those of the source. Rule as the data show it, for most assays here: actives have a measured IC50 and inactives only a lower limit.

Tests used:
[1] = target: Voltage-gated N-type calcium channel alpha-1B subunit/Amyloid beta A4 precursor protein-binding family A member 1 (Homo sapiens, UniProt Q00975+Q02410); type: protein assay
[2] = target: T1, Tyrosine-protein phosphatase non-receptor type 22 (Homo sapiens, UniProt Q9Y2R2); test: SAR LYP1 Fluorescent Assay using pCAP substrate for In Vitro dose response studies - Set 2. [Related pubchem assays (depositor defined):AID1779, AID1784, AID2135, AID449727]; type: functional
T1 sequence (Q9Y2R2 whole entry): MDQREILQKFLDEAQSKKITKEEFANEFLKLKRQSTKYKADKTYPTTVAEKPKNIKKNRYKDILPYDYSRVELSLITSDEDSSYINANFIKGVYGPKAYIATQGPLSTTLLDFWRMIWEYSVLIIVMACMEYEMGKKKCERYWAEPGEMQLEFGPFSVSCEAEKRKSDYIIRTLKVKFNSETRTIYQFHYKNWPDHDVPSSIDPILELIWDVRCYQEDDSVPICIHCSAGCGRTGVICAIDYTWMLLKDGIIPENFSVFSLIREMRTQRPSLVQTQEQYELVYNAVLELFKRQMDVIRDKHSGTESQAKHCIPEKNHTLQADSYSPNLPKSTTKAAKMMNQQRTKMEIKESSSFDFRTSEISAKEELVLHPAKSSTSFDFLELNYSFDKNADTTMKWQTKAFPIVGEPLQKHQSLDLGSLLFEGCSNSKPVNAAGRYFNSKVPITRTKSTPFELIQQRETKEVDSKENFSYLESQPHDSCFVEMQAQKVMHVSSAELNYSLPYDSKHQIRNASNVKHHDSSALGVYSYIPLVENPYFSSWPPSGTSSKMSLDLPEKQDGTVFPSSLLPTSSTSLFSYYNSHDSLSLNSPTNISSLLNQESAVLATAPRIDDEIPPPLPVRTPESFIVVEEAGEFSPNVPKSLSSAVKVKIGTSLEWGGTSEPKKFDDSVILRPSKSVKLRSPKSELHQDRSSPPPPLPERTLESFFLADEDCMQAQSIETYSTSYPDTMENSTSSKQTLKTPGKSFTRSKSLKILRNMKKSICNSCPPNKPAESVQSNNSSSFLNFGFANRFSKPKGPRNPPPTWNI

[3] = target: T1, Tyrosine-protein phosphatase non-receptor type 22; type: functional
[4] = target: T2, Mannose-6-phosphate isomerase (Homo sapiens, UniProt P34949); test: MPI enzyme activity inhibition – biochemical, fluorescence intensity, coupled assay, primary screen (AID 1209)
T2 sequence (P34949 whole entry): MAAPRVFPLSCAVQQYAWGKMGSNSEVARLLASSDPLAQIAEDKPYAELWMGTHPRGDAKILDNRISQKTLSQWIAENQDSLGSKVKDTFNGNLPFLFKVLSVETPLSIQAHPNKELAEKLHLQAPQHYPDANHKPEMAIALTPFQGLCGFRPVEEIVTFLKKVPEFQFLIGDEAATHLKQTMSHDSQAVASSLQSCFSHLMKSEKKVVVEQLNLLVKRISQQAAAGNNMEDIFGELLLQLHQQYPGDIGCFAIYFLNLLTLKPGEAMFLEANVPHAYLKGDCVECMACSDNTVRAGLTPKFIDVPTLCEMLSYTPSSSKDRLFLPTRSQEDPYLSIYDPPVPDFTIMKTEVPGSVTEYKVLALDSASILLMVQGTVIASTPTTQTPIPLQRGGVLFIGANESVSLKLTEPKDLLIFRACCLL

[5] = target: T3, Replicative DNA helicase DnaB (Mycobacterium tuberculosis, UniProt P9WMR3); test: DnaB intein splicing inhibitors, dose response, biochemical, cell-free fluorescence (AID 449749); type: functional
T3 sequence (P9WMR3 whole entry): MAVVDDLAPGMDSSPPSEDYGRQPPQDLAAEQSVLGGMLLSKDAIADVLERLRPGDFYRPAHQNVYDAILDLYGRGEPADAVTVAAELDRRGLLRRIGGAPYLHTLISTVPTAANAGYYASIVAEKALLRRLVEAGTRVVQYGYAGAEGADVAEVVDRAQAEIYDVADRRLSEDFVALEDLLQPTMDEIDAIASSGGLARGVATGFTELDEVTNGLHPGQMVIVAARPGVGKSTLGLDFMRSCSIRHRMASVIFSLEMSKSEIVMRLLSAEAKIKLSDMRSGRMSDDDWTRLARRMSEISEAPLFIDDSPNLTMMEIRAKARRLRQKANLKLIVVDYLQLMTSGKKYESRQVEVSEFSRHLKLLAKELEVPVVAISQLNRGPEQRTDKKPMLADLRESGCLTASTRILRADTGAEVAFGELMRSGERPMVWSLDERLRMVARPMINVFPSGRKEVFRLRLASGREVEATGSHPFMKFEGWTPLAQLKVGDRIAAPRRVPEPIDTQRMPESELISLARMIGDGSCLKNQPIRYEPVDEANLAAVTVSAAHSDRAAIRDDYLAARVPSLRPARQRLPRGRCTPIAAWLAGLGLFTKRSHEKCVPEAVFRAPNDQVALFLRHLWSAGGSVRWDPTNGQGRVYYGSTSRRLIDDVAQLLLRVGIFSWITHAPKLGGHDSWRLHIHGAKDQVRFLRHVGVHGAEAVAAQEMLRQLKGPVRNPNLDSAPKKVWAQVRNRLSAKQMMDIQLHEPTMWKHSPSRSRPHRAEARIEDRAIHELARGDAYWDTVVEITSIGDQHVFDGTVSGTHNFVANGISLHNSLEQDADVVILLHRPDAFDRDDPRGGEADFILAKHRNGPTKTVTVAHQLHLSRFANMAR

Chain of Voltage-gated N-type calcium channel alpha-1B subunit/Amyloid beta A4 precursor protein-binding family A member 1 (Q00975 whole entry): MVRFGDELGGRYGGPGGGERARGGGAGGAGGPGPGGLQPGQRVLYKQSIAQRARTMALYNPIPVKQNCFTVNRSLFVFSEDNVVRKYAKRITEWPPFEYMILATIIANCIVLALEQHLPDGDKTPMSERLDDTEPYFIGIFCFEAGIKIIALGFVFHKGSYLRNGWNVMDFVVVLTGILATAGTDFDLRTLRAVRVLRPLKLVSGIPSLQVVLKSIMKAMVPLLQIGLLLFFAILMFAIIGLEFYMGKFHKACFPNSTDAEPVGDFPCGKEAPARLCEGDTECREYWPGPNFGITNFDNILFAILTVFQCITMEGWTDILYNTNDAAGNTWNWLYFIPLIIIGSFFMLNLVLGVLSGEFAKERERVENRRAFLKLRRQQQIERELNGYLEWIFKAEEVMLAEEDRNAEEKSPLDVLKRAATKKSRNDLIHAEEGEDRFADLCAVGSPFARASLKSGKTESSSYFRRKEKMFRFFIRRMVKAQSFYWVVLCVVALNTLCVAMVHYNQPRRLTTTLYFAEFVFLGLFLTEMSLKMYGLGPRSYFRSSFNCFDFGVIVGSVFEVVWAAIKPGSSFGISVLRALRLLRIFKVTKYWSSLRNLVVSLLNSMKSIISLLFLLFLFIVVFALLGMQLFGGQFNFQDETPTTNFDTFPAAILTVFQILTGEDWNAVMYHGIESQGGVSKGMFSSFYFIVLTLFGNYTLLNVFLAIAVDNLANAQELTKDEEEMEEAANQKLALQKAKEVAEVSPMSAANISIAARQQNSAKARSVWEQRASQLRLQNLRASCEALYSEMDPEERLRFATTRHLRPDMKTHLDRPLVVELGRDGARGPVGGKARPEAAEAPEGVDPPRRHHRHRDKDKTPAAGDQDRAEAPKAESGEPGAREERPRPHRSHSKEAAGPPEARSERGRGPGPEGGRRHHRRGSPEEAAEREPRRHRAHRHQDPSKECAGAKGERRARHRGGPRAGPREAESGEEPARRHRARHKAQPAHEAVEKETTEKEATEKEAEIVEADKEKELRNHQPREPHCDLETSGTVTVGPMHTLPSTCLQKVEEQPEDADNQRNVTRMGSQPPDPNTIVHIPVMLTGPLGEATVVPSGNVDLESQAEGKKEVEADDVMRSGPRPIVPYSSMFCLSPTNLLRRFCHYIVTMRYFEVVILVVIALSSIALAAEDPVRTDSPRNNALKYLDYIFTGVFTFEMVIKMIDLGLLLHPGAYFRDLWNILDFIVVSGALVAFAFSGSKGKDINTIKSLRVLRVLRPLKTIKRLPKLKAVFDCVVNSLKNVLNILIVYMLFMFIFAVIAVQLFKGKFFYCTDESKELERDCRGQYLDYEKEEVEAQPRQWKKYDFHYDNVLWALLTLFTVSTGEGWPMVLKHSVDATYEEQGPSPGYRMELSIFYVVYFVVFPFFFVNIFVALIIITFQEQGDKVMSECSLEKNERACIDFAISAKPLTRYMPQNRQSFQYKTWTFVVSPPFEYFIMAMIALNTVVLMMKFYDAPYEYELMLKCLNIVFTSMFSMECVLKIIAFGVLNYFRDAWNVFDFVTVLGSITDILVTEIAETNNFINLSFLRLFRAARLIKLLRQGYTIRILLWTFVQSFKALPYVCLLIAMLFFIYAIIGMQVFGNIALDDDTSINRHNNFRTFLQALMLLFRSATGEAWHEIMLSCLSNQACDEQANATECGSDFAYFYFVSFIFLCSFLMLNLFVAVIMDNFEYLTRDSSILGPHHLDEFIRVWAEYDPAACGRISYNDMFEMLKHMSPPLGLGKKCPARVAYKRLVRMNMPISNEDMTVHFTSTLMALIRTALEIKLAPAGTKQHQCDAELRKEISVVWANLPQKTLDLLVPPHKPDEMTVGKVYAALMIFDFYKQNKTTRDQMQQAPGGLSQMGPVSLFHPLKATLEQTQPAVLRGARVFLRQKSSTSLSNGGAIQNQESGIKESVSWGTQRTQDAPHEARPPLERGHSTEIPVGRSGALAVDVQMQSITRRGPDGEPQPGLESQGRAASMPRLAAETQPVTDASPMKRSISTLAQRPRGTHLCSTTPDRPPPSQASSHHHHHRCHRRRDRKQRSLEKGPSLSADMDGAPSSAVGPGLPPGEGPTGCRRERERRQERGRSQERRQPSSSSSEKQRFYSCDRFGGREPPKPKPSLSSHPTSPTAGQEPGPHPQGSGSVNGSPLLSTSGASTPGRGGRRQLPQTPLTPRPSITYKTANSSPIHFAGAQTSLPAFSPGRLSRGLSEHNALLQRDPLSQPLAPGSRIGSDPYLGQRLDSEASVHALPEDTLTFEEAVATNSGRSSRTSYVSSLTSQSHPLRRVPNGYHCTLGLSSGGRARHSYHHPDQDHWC
Chain of Voltage-gated N-type calcium channel alpha-1B subunit/Amyloid beta A4 precursor protein-binding family A member 1 (Q02410 whole entry): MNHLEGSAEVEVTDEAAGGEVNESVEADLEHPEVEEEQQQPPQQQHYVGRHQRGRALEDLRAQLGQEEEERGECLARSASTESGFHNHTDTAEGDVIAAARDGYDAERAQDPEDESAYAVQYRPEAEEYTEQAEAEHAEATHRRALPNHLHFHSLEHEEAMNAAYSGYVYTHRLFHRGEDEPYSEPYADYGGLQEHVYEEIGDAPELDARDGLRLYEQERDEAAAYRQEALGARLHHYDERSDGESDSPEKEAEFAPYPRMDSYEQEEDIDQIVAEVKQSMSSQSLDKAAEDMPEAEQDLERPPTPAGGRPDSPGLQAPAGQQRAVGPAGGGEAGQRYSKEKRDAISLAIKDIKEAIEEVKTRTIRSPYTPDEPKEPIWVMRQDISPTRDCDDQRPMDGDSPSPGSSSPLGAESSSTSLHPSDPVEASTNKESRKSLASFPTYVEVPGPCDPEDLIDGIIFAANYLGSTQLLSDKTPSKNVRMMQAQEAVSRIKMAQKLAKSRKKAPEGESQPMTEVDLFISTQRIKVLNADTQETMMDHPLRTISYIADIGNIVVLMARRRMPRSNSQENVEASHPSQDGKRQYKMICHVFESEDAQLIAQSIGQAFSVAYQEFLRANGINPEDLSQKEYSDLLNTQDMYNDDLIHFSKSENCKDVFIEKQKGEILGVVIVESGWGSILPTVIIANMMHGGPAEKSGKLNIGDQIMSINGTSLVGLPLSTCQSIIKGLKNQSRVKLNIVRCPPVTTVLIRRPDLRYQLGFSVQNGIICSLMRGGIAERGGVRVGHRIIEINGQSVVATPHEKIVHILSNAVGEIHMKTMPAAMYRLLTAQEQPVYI

**Q.** What does the source list for `COc1ccc(/C=C2\SC(=S)N(CCC(=O)Nc3ccc(C(=O)O)cc3)C2=O)cc1OC`?
**A.** IC50 [1]: > 50 µM (inactive); IC50 [2]: 1.38 µM (active); IC50 [3]: 2.75 µM (active)

**Q.** `COc1ccc(Nc2ccc3c(c2)=NC2(CCCCC2)[N+]=3[O-])cc1` was tested. Which IC50 [4] did it give?
**A.** > 50 µM (not active)

**Q.** And the AC50 [5]?
**A.** 9.3 µM (active)
